Target: Protein arginine N-methyltransferase 5 (Homo sapiens, UniProt O14744)
Experiment: Inhibition of human PRMT5 expressed in HEK293 cells coexpressing MEP50 incubated for 60 mins by chemiluminescent assay

Chain of Protein arginine N-methyltransferase 5 (O14744 whole entry): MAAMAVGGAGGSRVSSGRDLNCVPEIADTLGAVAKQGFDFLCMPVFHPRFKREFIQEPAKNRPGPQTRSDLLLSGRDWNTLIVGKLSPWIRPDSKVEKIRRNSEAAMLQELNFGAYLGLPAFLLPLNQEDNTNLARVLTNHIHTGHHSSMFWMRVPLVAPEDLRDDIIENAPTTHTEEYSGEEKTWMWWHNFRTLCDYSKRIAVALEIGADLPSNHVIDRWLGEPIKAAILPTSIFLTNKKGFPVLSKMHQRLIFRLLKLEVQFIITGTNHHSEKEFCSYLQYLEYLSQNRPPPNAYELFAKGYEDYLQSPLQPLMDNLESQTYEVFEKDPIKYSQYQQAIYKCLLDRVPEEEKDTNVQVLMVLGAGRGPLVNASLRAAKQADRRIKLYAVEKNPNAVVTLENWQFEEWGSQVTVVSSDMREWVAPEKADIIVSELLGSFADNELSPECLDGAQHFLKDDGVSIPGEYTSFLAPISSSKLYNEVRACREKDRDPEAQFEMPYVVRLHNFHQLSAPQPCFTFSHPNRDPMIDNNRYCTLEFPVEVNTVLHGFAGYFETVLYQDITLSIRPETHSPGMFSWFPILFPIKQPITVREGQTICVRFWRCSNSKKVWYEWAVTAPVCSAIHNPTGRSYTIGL

CC(=O)N1CCC(Nc2cc(C(=O)NC[C@H](O)CN3CCc4c([nH]c5ccccc45)C3)ncn2)CC1 [(S)-6-((1-acetylpiperidin-4-yl)amino)-N-(2-hydroxy-3-(1,3,4,9-tetrahydro-2H-pyrido [3,4-b]indol-2-yl)propyl)pyrimidine-4-carboxamide]
IC50: 10 nM
